Assay results taken from ChEMBL document CHEMBL5620345, “Metal binding pharmacophore click-derived discovery of new broad-spectrum metallo-β-lactamase inhibitors” (Eur J Med Chem, 2023).

Legend:
[1] = Inhibition of recombinant VIM-1 (unknown origin) expressed in Escherichia coli (DE3) cells using FC5 as substrate by microplate reader assay
[2] = Inhibition of recombinant his tagged VIM-2 (unknown origin) expressed in Escherichia coli (DE3) cells using FC5 as substrate by microplate reader assay
[3] = Inhibition of recombinant his tagged IMP1 (unknown origin) expressed in Escherichia coli (DE3) cells using FC5 as substrate by microplate reader assay
[4] = Inhibition of recombinant NDM1 (unknown origin) expressed in Escherichia coli (DE3) cells using FC5 as substrate by microplate reader assay
[5] = Inhibition of recombinant VIM-5 (unknown origin) expressed in Escherichia coli (DE3) cells using FC5 as substrate by microplate reader assay

IC50 [1] [µM] | IC50 [2] [µM] | IC50 [3] [µM] | IC50 [4] [µM] | IC50 [5] [µM] | Structure (SMILES)
0.041 | 0.004 | 13.2 | 0.18 | – | NCCN[C@H]1CC[C@H](CC(=O)N[C@H]2Cc3cccc(C(=O)O)c3OB2O)CC1
> 100 | > 100 | > 100 | > 100 | > 100 | O=C(O)c1cccc(-n2cc(-c3ccccc3)nn2)c1
> 100 | > 100 | > 100 | > 100 | > 100 | Nc1c(C(=O)O)cccc1-n1cc(-c2ccccc2)nn1
> 100 | > 100 | > 100 | > 100 | > 100 | NCc1cn(-c2ccccc2CP(=O)(O)O)nn1
19.5 | > 100 | 13.9 | > 100 | > 100 | O=C(O)c1ccccc1-c1cn(-c2cccc(C(=O)O)c2C(=O)O)nn1
> 100 | 64.2 | > 100 | 36.3 | 14.6 | OB(O)c1cccc(-c2cn(Cc3ccccc3)nn2)c1
> 100 | 37.6 | 6.43 | > 100 | 61.7 | Nc1ccccc1-c1cn(-c2cccc(C(=O)O)c2C(=O)O)nn1
14.5 | 11.7 | 1.17 | > 100 | > 100 | Nc1cccc(-c2cn(-c3cccc(C(=O)O)c3C(=O)O)nn2)c1
> 100 | 77.2 | 8.94 | > 100 | > 100 | CCCCc1cn(-c2cccc(C(=O)O)c2C(=O)O)nn1
6.29 | 0.88 | 80.4 | > 100 | 1.49 | O=P(O)(O)Cc1ccccc1-n1cc(-c2cccc(Cl)c2)nn1
> 100 | > 100 | > 100 | > 100 | > 100 | OB(O)c1cccc(-c2cn(-c3ccccc3)nn2)c1
> 100 | 67.5 | 1.8 | > 100 | > 100 | NCCc1ccc(-c2cn(-c3cccc(C(=O)O)c3C(=O)O)nn2)cc1
> 100 | > 100 | > 100 | > 100 | > 100 | O=C(O)c1cccc(-n2cc(-c3ccccc3)nn2)c1[N+](=O)[O-]
16 | 1.63 | > 100 | > 100 | 1.5 | O=P(O)(O)Cc1ccc(-n2cc(-c3ccccc3)nn2)cc1
10 | 1.48 | > 100 | > 100 | 1.63 | O=P(O)(O)Cc1ccccc1-n1cc(-c2ccccc2)nn1
> 100 | 52.4 | > 100 | > 100 | > 100 | CC(C)(C)OC(=O)NCCn1cc(-c2cccc(B(O)O)c2)nn1
> 100 | 13.3 | 8.23 | > 100 | > 100 | O=C(O)c1cccc(-n2cc(-c3ccccc3)nn2)c1C(=O)O
> 100 | 10.3 | 5.07 | > 100 | > 100 | Nc1ccc(-c2cn(-c3cccc(C(=O)O)c3C(=O)O)nn2)cc1
> 100 | 34.3 | > 100 | > 100 | 6.36 | O=C(CCn1cc(-c2cccc(B(O)O)c2)nn1)Nc1ccccc1
> 100 | > 100 | 81.5 | > 100 | > 100 | NCc1cn(-c2cccc(C(=O)O)c2C(=O)O)nn1

IC50 [1] [µM] | IC50 [2] [µM] | IC50 [3] [µM] | IC50 [4] [µM] | IC50 [5] [µM] | Structure (SMILES)
> 100 | 24.2 | > 100 | 29.1 | 14.7 | OB(O)c1cccc(-c2cn(-c3cccc(Cl)c3)nn2)c1
3.65 | 0.65 | 5.98 | 27.8 | 0.05 | O=P(O)(O)Cc1cccc(-n2cc(-c3ccccc3)nn2)c1
> 100 | 30.5 | > 100 | 68.2 | 48.7 | O=C(CCn1cc(-c2cccc(B(O)O)c2)nn1)Nc1cccc(Cl)c1
21.7 | 4.92 | > 100 | > 100 | 1.4 | NCc1cccc(-c2cn(-c3ccccc3CP(=O)(O)O)nn2)c1
13.8 | 5.34 | > 100 | > 100 | 32.2 | CCCCc1cn(-c2ccccc2CP(=O)(O)O)nn1
27.2 | 1.11 | > 100 | 94.9 | 0.38 | Nc1cccc(-c2cn(-c3ccccc3CP(=O)(O)O)nn2)c1
37.8 | 53.2 | 3.53 | > 100 | 72 | O=C(O)c1cccc(-n2cc(CNc3ccccc3)nn2)c1C(=O)O
61.9 | > 100 | > 100 | > 100 | 59.9 | O=C(O)c1cccc(-n2cc(-c3ccccc3)nn2)c1O
> 100 | 18.4 | > 100 | 50.4 | > 100 | Nc1cccc(-n2cc(-c3cccc(B(O)O)c3)nn2)c1
> 100 | > 100 | 40.7 | > 100 | > 100 | O=C(O)c1cccc(-n2cc(CCO)nn2)c1C(=O)O
> 100 | 94.6 | 46.2 | > 100 | 60.4 | O=C(O)c1ccc(-n2cc(-c3ccccc3)nn2)cc1C(=O)O
71 | > 100 | 9.02 | > 100 | 87.1 | O=C(O)c1cccc(-n2cc(Cc3ccccc3)nn2)c1C(=O)O
> 100 | > 100 | > 100 | > 100 | > 100 | OCCn1cc(-c2cccc(B(O)O)c2)nn1
> 100 | > 100 | 19.7 | > 100 | > 100 | NCc1cccc(-c2cn(-c3cccc(C(=O)O)c3C(=O)O)nn2)c1
6.57 | 3.37 | > 100 | > 100 | 1.89 | Cc1cccc(-c2cn(-c3ccccc3CP(=O)(O)O)nn2)c1
> 100 | 19.8 | 1.83 | > 100 | 28.8 | Cc1cccc(-c2cn(-c3cccc(C(=O)O)c3C(=O)O)nn2)c1
15 | 20.5 | 2.84 | > 100 | 32.2 | O=C(O)c1cccc(-n2cc(-c3cccc(Cl)c3)nn2)c1C(=O)O
9.79 | 0.65 | 8.49 | 25.9 | 0.1 | O=P(O)(O)Cc1cccc(-n2cc(-c3ccccc3F)nn2)c1
46 | 4.16 | > 100 | 82.8 | 14.9 | O=P(O)(O)Cc1ccccc1-n1cc(CNc2ccccc2)nn1
> 100 | 55.3 | 29.2 | > 100 | 93.6 | O=C(O)c1cn(-c2cccc(C(=O)O)c2C(=O)O)nn1
